The subject of this assay is primary AML cells. The experiment in a line: Sample drug screening: viability of primary AML cells (PrestoBlue) after 24 h drug exposure in nine culture conditions. The settings on record: for IC50: Homo sapiens; for sensitivity of AML cells to the drug: co-culture with AML MSC-derived niches; for chemosensitivity of primary AML cells towards the drug: co-culture with healthy 3DON.

Where two headings read alike, the source gives them in different places.

In the case of `COc1cccc2c1C(=O)c1c(O)c3c(c(O)c1C2=O)C[C@@](O)(C(C)=O)C[C@@H]3O[C@H]1C[C@H](N)[C@H](O)[C@H](C)O1` [daunorubicin], the “sensitivity of AML cells to the drug” value is “less sensitive” and the “chemosensitivity of primary AML cells towards the drug” value is listed as “increase the chemosensitivity”. In addition, the IC50 (read-out: IC50 daunorubicin, primary AML cells co-cultured with AML 2DMN) amounted to 74 µM. Also, the IC50 (read-out: IC50 daunorubicin, primary AML cells co-cultured with AML 3DMN) was 55.9 µM. For the same molecule, the half-maximal inhibitory concentration (IC50) (read-out: IC50 daunorubicin, primary AML cells co-cultured with AML 3DON) stood at 43.4 µM. Moreover, the IC50 (read-out: IC50 daunorubicin, primary AML cells co-cultured with healthy 2DMN) came out at 0.571 µM. In addition, under “read-out: IC50 daunorubicin, primary AML cells co-cultured with healthy 3DMN”, the IC50 is 3.31 µM. Moreover, the IC50 (read-out: IC50 daunorubicin, primary AML cells in NC1 (AML medium)) was determined as 0.0486 µM. Further, the IC50 (read-out: IC50 daunorubicin, primary AML cells in NC2 (MSC medium)) stood at 0.525 µM. The half-maximal inhibitory concentration (IC50) (read-out: IC50 daunorubicin, primary AML cells in PC (engineered growth factor cocktail medium)) was 34.3 µM.
`COc1cccc2c1C(=O)c1c(O)c3c(c(O)c1C2=O)C[C@@](O)(C(=O)CO)C[C@@H]3O[C@H]1C[C@H](N)[C@H](O)[C@H](C)O1` [doxorubicin]: the “sensitivity of AML cells to the drug” value is “less sensitive” and the “chemosensitivity of primary AML cells towards the drug” value is reported as “increase the chemosensitivity”.

The record behind these values is US20240384236A1, “3D RECONSTITUTED BONE MARROW NICHE AND USES THEREOF” (The University of Hong Kong, priority 2023, published 2024).
